Reference: patent publication US12552790B2, “Positive modulators of the muscarinic acetylcholine receptor M4” (Vanderbilt University, priority 2023, dated 2026)

Key:
[1] = Human intrinsic clearance; type: in vitro ADME
Source text: (§1) Compounds may be tested in in vitro assays to investigate both metabolism and pharmacokinetics. These assays may be performed according to known methods as generally described in the following references: Conde-Ceide et al. ACS Med. Chem. Lett. 2015, 6, 716-720; Morris et al. J. Med. Chem. 2014, 57, 10192-10197; and Bubser et al. ACS Chem. Neurosci. 2014, 5, 920-942.

Human M4 = target: T1, Human M4 (Homo sapiens, UniProt P08173); test: M4 cell-based functional assay, calcium mobilization, potentiation of ACh EC20; conditions: for Emax at 30 µM: % ACh maximum at 30 μM; for EC50: CHO-K1 hM4-Gqi5 cells, calcium flux, ACh EC20
T1 construct: expressed in transfected cells
T1 sequence (P08173 1-479): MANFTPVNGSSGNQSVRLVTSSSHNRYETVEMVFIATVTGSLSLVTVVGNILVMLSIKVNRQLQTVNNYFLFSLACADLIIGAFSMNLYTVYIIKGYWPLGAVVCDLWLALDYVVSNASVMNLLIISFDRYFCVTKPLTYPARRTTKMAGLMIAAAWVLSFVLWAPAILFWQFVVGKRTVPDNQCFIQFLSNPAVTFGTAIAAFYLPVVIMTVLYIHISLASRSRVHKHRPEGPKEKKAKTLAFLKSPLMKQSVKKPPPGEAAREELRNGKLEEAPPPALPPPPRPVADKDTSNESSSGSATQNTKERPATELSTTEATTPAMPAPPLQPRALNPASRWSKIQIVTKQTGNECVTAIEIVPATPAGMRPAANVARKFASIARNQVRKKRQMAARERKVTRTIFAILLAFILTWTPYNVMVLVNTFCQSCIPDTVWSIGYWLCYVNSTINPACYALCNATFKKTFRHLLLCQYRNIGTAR
Procedure, shortened: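 CHO-K1 cells stably co-expressing human M4 and chimeric Gqi5, loaded with Fluo-4-AM, read by calcium fluorescence (ex 480/em 530 nm). Compound (10-point 1:3 series) added ~140 s before an EC20 ACh challenge, then EC80 ACh. Response expressed as fold over basal, normalized to maximal ACh response.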

[2] = Dog fraction unbound in plasma; type: in vitro ADME; conditions: read-out: Dog Fu (plasma)
Source text: as §1

P450 1A2 = target: T2, P450 1A2 (Homo sapiens, UniProt P05177); test: P450 1A2 inhibition; type: in vitro ADME
T2 sequence (P05177 1-516): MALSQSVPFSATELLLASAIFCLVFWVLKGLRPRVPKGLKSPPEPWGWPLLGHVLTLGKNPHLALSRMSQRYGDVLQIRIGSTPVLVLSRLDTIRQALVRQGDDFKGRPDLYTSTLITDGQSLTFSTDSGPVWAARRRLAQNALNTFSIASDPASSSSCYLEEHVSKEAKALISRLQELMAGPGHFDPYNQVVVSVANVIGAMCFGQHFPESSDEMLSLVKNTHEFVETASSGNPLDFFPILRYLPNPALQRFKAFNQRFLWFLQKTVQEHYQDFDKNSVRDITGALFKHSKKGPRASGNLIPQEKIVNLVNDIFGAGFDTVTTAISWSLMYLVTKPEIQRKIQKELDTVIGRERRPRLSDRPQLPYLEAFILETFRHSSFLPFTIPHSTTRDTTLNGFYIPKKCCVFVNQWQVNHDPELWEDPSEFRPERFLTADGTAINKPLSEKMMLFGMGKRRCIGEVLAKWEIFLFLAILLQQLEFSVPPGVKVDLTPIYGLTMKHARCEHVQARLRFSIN
Source text: as §1

P450 3A4 = P450 3A4 (Homo sapiens, UniProt P08684); test: P450 3A4 inhibition; type: in vitro ADME
Source text: as §1

P450 2C9 = P450 2C9 (Homo sapiens, UniProt P11712); test: P450 2C9 inhibition; type: in vitro ADME
Source text: as §1

P450 2C9, sequence (P11712 whole entry): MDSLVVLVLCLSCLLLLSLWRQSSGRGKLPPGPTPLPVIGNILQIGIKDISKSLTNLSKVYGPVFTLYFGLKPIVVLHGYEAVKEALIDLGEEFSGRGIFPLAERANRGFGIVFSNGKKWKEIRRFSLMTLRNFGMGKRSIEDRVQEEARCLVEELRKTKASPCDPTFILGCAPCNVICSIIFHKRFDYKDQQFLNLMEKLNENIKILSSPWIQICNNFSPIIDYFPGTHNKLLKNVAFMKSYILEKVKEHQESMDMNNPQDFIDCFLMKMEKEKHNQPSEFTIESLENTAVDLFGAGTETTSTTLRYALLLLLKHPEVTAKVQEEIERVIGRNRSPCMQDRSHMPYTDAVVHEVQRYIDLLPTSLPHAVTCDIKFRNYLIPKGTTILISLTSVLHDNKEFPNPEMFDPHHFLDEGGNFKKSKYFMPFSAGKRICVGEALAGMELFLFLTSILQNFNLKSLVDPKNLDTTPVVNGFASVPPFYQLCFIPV
P450 3A4, sequence (P08684 whole entry): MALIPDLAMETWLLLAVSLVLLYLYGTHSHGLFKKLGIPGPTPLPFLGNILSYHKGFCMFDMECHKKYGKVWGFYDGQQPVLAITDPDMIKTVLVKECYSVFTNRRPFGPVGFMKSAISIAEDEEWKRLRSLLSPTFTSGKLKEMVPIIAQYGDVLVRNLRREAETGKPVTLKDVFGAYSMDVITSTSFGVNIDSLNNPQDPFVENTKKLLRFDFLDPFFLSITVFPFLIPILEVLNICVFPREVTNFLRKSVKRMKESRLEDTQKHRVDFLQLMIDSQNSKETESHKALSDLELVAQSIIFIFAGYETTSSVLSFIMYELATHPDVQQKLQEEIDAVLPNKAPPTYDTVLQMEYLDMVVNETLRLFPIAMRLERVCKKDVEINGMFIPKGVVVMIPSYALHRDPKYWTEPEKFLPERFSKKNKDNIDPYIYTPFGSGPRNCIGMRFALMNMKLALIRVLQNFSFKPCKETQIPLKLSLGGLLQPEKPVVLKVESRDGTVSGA

CLint scaled [1] | Emax at 30 µM (Human M4) | EC50 (Human M4) | fraction unbound [2] | IC50 (P450 1A2) | IC50 (P450 3A4) | IC50 (P450 2C9) | Compound
15 mL/min/kg | 96% | 2 nM | 0.042 | > 100000 nM | > 100000 nM | > 100000 nM | [2H]C1([2H])Oc2ccc(OC3CCN(c4nc5c(cc4C)C(=O)NC5)CC3)cc2OC1([2H])[2H] [Compound 3, 2-(4-((2,3-dihydrobenzo[b][1,4]dioxin-6-yl-2,2,3,3-d4)oxy)piperidin-1-yl)-3-methyl-6,7-dihydro-5H-pyrrolo[3,4-b]pyridin-5-one]
– | 90% | 7 nM | – | – | – | – | [2H]C1([2H])Oc2ccc(OC3CCN(c4nc5nn(C)c(=O)n5cc4C)CC3)cc2OC1([2H])[2H] [Compound A6, 7-(4-((2,3-dihydrobenzo[b][1,4]dioxin-6-yl-2,2,3,3-d4)oxy)piperidin-1-yl)-2,6-dimethyl-[1,2,4]triazolo[4,3-a]pyrimidin-3(2H)-one]
– | 96% | 2 nM | – | – | – | – | [2H]C1([2H])Oc2ccc(OC3CCN(c4nc5nn(C)c(=O)n5c(C)c4C)CC3)cc2OC1([2H])[2H] [Compound A10, 7-(4-((2,3-dihydrobenzo[b][1,4]dioxin-6-yl-2,2,3,3-d4)oxy)piperidin-1-yl)-2,5,6-trimethyl-[1,2,4]triazolo[4,3-a]pyrimidin-3(2H)-one]
